Measurements taken from the supplement of paper PMC12513837.
± gives the standard deviation of the averaged measurements.

The test systems below were run with CC(=O)N1CCc2c(c(N3CCCc4cc(-c5cnn(C)c5)c(C(F)F)cc43)nn2C2CCC(CN3CCN(c4ccc5c(c4)C(=O)N(C4CCC(=O)NC4=O)C5=O)CC3)CC2)C1 [CBPD-409] (assay: AUC of viability dose-response curve (relative to vehicle, 8 doses up to 10 µM) (fraction); higher = less sensitive (more viable); extreme values may be limits of the assay).
Experimental: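 PRISM multiplexed pooled barcoded cell line viability screen at the Broad Institute, 887 cancer cell lines treated with CBPD-409 (p300/CBP PROTAC degrader) at 8 concentrations in threefold dilution, top dose 10 µM. The read-out is the area under the dose-response curve of relative viability versus vehicle (n=3). AUC < 0.3 is called strongly sensitive and AUC > 0.8 resistant.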

Row | Test System | AUC of viability dose-response curve
1 | DMS53_LUNG | 0.475
2 | DMS273_LUNG | 0.976
3 | DND41_HAEMATOPOIETIC_AND_LYMPHOID_TISSUE | 0.567
4 | DOHH2_HAEMATOPOIETIC_AND_LYMPHOID_TISSUE | 0.468
5 | DOTC24510_CERVIX | 0.344
6 | DU145_PROSTATE | 0.946
7 | DU4475_BREAST | 0.831
8 | DV90_LUNG | 0.588
9 | EB1_HAEMATOPOIETIC_AND_LYMPHOID_TISSUE | 1
10 | EBC1_LUNG | 0.537
11 | ECC2_BILIARY_TRACT | 0.402
12 | ECGI10_OESOPHAGUS | 0.903
13 | EFE184_ENDOMETRIUM | 0.79
14 | EFM19_BREAST | 0.575
15 | EFM192A_BREAST | 0.645
16 | EFO21_OVARY | 0.764
17 | EFO27_OVARY | 1
18 | EGI1_BILIARY_TRACT | 0.872
19 | EKVX_LUNG | 1
20 | EM2_HAEMATOPOIETIC_AND_LYMPHOID_TISSUE | 0.613
21 | EMTOKA_ENDOMETRIUM | 0.825
22 | EOL1_HAEMATOPOIETIC_AND_LYMPHOID_TISSUE | 0.207
23 | ES2_OVARY | 0.986
24 | ESS1_ENDOMETRIUM | 0.901
25 | EW8_BONE | 0.946

Row | Test System | AUC of viability dose-response curve
26 | EWS502_BONE | 0.749 ± 0.15
27 | FADU_UPPER_AERODIGESTIVE_TRACT | 0.844
28 | FLO1_OESOPHAGUS | 0.731
29 | FTC133_THYROID | 0.549
30 | FTC238_THYROID | 0.734
31 | G292CLONEA141B1_BONE | 0.585 ± 0.31
32 | G361_SKIN | 0.186
33 | G402_SOFT_TISSUE | 0.514 ± 0.18
34 | G415_BILIARY_TRACT | 0.902
35 | GAMG_CENTRAL_NERVOUS_SYSTEM | 0.77
36 | GB1_CENTRAL_NERVOUS_SYSTEM | 0.595
37 | GB2_BILIARY_TRACT | 0.826
38 | GCIY_STOMACH | 0.542
39 | GCT27_TESTIS | 0.696
40 | GCT_SOFT_TISSUE | 0.541
41 | GDM1_HAEMATOPOIETIC_AND_LYMPHOID_TISSUE | 0.877
42 | GI1_CENTRAL_NERVOUS_SYSTEM | 0.602
43 | GIMEN_AUTONOMIC_GANGLIA | 0.616
44 | GOS3_CENTRAL_NERVOUS_SYSTEM | 0.79
45 | GP2D_LARGE_INTESTINE | 0.847
46 | GP5D_LARGE_INTESTINE | 1
47 | GSS_STOMACH | 0.349
48 | GSU_STOMACH | 0.326
49 | H4_CENTRAL_NERVOUS_SYSTEM | 0.625
50 | H103_UPPER_AERODIGESTIVE_TRACT | 0.997

Row | Test System | AUC of viability dose-response curve
51 | H157_UPPER_AERODIGESTIVE_TRACT | 0.993
52 | H357_UPPER_AERODIGESTIVE_TRACT | 0.815
53 | H376_UPPER_AERODIGESTIVE_TRACT | 0.862
54 | H413_UPPER_AERODIGESTIVE_TRACT | 0.842
55 | HA1E_KIDNEY | 0.542
56 | HAC2_OVARY | 1
57 | HARA_LUNG | 0.981
58 | HCA1_CERVIX | 0.811
59 | HCC15_LUNG | 1
60 | HCC38_BREAST | 0.323
61 | HCC44_LUNG | 1
62 | HCC56_LARGE_INTESTINE | 0.809
63 | HCC78_LUNG | 0.807
64 | HCC95_LUNG | 1
65 | HCC515_LUNG | 0.612
66 | HCC827_LUNG | 0.731
67 | HCC1143_BREAST | 0.623
68 | HCC1195_LUNG | 1
69 | HCC1359_LUNG | 1
70 | HCC1395_BREAST | 0.783
71 | HCC1419_BREAST | 0.122
72 | HCC1428_BREAST | 0.667
73 | HCC1438_LUNG | 0.893
74 | HCC1806_BREAST | 1
75 | HCC1937_BREAST | 0.957

Row | Test System | AUC of viability dose-response curve
76 | HCC1954_BREAST | 1
77 | HCC2108_LUNG | 0.793
78 | HCC4006_LUNG | 1
79 | HCSC1_CERVIX | 0.357
80 | HCT15_LARGE_INTESTINE | 0.354
81 | HCT116_LARGE_INTESTINE | 0.998
82 | HDMB03_CENTRAL_NERVOUS_SYSTEM | 0.453
83 | HDQP1_BREAST | 0.853
84 | HEC1A_ENDOMETRIUM | 0.407
85 | HEC1B_ENDOMETRIUM | 0.998
86 | HEC1_ENDOMETRIUM | 1
87 | HEC6_ENDOMETRIUM | 0.645
88 | HEC50B_ENDOMETRIUM | 0.851
89 | HEC59_ENDOMETRIUM | 0.677
90 | HEC108_ENDOMETRIUM | 0.693
91 | HEC116_ENDOMETRIUM | 0.78
92 | HEC151_ENDOMETRIUM | 1
93 | HEC251_ENDOMETRIUM | 0.841
94 | HEC265_ENDOMETRIUM | 0.695
95 | HEL9217_HAEMATOPOIETIC_AND_LYMPHOID_TISSUE | 0.229
96 | HEL_HAEMATOPOIETIC_AND_LYMPHOID_TISSUE | 0.267
97 | HEP3B217_LIVER | 0.4
98 | HEPG2_LIVER | 1
99 | HEYA8_OVARY | 1
100 | HGC27_STOMACH | 0.316

Row | Test System | AUC of viability dose-response curve
101 | HH_HAEMATOPOIETIC_AND_LYMPHOID_TISSUE | 1
102 | HKA1_SKIN | 1
103 | HKGZCC_BILIARY_TRACT | 1
104 | HL60_HAEMATOPOIETIC_AND_LYMPHOID_TISSUE | 0.516
105 | HLF_LIVER | 1
106 | HMC18_BREAST | 0.932
107 | HOS_BONE | 0.931 ± 0.027
108 | HOTHC_THYROID | 0.845
109 | HPAC_PANCREAS | 1
110 | HPAFII_PANCREAS | 0.919
111 | HPBALL_HAEMATOPOIETIC_AND_LYMPHOID_TISSUE | 0.878
112 | HS294T_SKIN | 0.929
113 | HS611T_HAEMATOPOIETIC_AND_LYMPHOID_TISSUE | 0.742
114 | HS683_CENTRAL_NERVOUS_SYSTEM | 1
115 | HS729_SOFT_TISSUE | 0.807 ± 0.27
116 | HS766T_PANCREAS | 0.73
117 | HS852T_SKIN | 1
118 | HS939T_SKIN | 0.815
119 | HS944T_SKIN | 1
120 | HSC1_SKIN | 1
121 | HSC2_UPPER_AERODIGESTIVE_TRACT | 0.502
122 | HSC3_UPPER_AERODIGESTIVE_TRACT | 0.936
123 | HSC5_SKIN | 0.644
124 | HSKTC_OVARY | 1
125 | HT3_CERVIX | 0.711

Row | Test System | AUC of viability dose-response curve
126 | HT29_LARGE_INTESTINE | 0.633
127 | HT55_LARGE_INTESTINE | 0.509
128 | HT115_LARGE_INTESTINE | 1
129 | HT144_SKIN | 1
130 | HT1080_SOFT_TISSUE | 1
131 | HT1197_URINARY_TRACT | 1
132 | HT1376_URINARY_TRACT | 1
133 | HTMMT_ENDOMETRIUM | 0.65
134 | HT_HAEMATOPOIETIC_AND_LYMPHOID_TISSUE | 0.672
135 | HUCCT1_BILIARY_TRACT | 0.983
136 | HUG1N_STOMACH | 1
137 | HUH1_LIVER | 0.882
138 | HUH6_LIVER | 1
139 | HUH7_LIVER | 0.796
140 | HUO9_BONE | 0.679
141 | HUPT3_PANCREAS | 0.687
142 | HUPT4_PANCREAS | 0.784
143 | HUT78_HAEMATOPOIETIC_AND_LYMPHOID_TISSUE | 1
144 | IALM_LUNG | 0.311
145 | ICC4_BILIARY_TRACT | 0.706
146 | ICC8_BILIARY_TRACT | 1
147 | ICC9_BILIARY_TRACT | 1
148 | ICC10_BILIARY_TRACT | 0.827
